Measurements as given in patent publication US7732437B2, “Use of anti-histaminics for acute reduction of elevated intracranial pressure” (Janssen Pharmaceutica, NV., priority 2001, dated 2010).
Where two headings read alike, the source gives them in different places. Marks after values point to notes of the source that are not given here. One block for each compound: values may come before it.

Legend:
[1] = tested on: Sprague-Dawley rats with closed head injury; test: Closed Head Injury (CHI) model, moderate head injury, treatment 24 h after trauma; assay type: in vivo, rat; settings: for effect on saturation of brain haemoglobin with oxygen HbSat (NIRS) / effect on the redox state of CytOx (NIRS) / effect on total brain haemoglobin concentration [HbTot] (NIRS): i.v. 0.5 mg/kg.min 10 min, then 0.1 mg/kg.min 45 min, 24 h after moderate head injury
Source text: The impact area was centered between bregma and lamda.
Near-infrared spectroscopy (NIRS) of the rat brain ‘in vivo’ allows to quantify non-invasively saturation of brain haemoglobin with oxygen (HbSat) and total brain haemoglobin concentration ([HbTot]). The latter is a measure for cerebral blood volume (CBV). Changes in the redox state of the mitochondrial enzyme cytochrome oxidase (CytOx), an indicator for tissue oxygenation, can also be monitored.
HbSat is not affected by compound 1 and the racemate (Comp. 1 and Comp. 2).
The effects of treatment with Compound 2 (i.v. infusion at a dose of 0.1 mg/kg.min during 30 min) at 24 h after moderate trauma were studied using different anesthetics (isoflurane, chloralhydrate, pentobarbital). When chloralhydrate (400 mg/kg i.p) is used as anesthetic, ICP decreases to 75% of initial value and MABP gradually increases to 110% of initial value (medians, n=6). […] Barbiturates also reduce the ICP and an important additional effect can be obtained with the compound.

[2] = tested on: rabbits with cortical cold lesion; test: Cold lesion-induced rise of ICP in rabbits; assay type: in vivo, rabbit; settings: 2 mg/kg/min for 10 min, one day after cryo-lesion
Description: Cryo-lesions were induced in adult rabbits to obtain a pathological ICP that is caused by tissue oedema. A 8 mm stainless steel rod was placed at predetermined coordinates on the exposed skull of deeply anaesthetised rabbits and cooled for 10 min with liquid nitrogen. One day later the animals were re-anaesthetised and ICP and blood pressure continuously recorded as described for the rat. After a stabilisation period of 15 min, Compound 1 was infused for 10 min at a dose of 2 mg/kg/min. Solvent (preclinical formulation containing 10% HP-β-CD, pH 4) was given for 10 min at a rate of 2 ml/min.

[3] = target: T1, human histamine H1-receptor (Homo sapiens, UniProt P35367); test: Radioligand binding, histamine H1-receptor, competitive inhibition of [3H]Pyrilamine; settings: CHO-cells transfected with the human histamine H1-receptor, read-out: H1-antagonist activity (pIC50) (converted)
T1 construct: expressed in transfected cells; host or cells: CHO cells
Description: Competitive inhibition of [^3H] […] Incubation was done during 150 min at 22° C.

[4] = tested on: Sprague-Dawley rats with closed head injury; test: Closed Head Injury (CHI) model, severe head injury; settings: for CPP (%), average change over treatment period, median (95% C.I.) / ETCO2 (%), average change over treatment period, median (95% C.I.) / Heart rate(%), average change over treatment period, median (95% C.I.) / ICP (%), average change over treatment period, % change of initial value, median (95% C.I.) / MABP (%), average change over treatment period, median (95% C.I.) / Resp. rate(%), average change over treatment period, median (95% C.I.): 0.5 mg/kg/min 10 min, then 0.1 mg/kg/min 50 min, start 20 min after severe CHI, n = 10; for Effect on ICP: 0.5 mg/kg/min for 10 min, first 15 minutes, 6 rats
Source text: (§1) A clinically relevant rat model for traumatic brain injury was used to test the compounds according to the invention and the commercially available compounds. […] Trauma was induced in intubated, isoflurane anesthetized (1.5% isoflurane in a mixture of 30% O2 and 70% N2O) Sprague-Dawley rats (380-400 g) stereotaxically positioned on a table mounted on 4 springs. A 400 g steel cylinder, protected with a 9 mm diameter silicon disc, was dropped on the unprotected skull from a height of either 70 cm or 50 cm (respectively ‘severe’ and ‘moderate’ head injury). The impact area was centered between bregma and lamda. ICP was recorded using a Codman microsensor probe inserted in the parietal cortex. […] The severe head injury mode was used for the evaluation of pharmacological effects immediately after trauma (screening procedure). […] In pharmacological studies, animals with a pathological ICP between 12.5 and 35 mm Hg were included. The changes in ICP, mean arterial blood pressure (MABP) and cerebral perfusion pressure CPP (=MABP—CPP) were expressed as percentage of the initial value at onset of the treatment.
(§2) On a weekly base, 4 treated groups of 3 rats were compared with 3 saline treated animals. Since conventional statistical methods require a larger amount of animals, a sequential procedure was used. Sequential methods operate in different stages. At each stage, a group of animals was selected as homogeneous as possible. Animals were randomly allocated to either drugs or saline. […] Given the biological relevant level of activity that must be detected, the expected fraction of false positive and negative results was known and fixed. A sequential two-sample grouped rank test was used.
(§3) Treatment was started at 20 min after severe head injury and involved administering a dose of 0.5 mg/kg/min during 10 minutes, followed by 0.1 mg/kg/min during 50 min.
(§4) Ranitidine was infused for 6 min at a dose of 2 mg/kg/min in the rat CHI-model after inflicting severe head injury. Solvent (NaCl+H2T) was given at the same rate. In each group, 6 rats were treated. […] The percentage of reduction are calculated as % change of the ICP recorded at the onset of the treatment and at the end of the infusion.
(§5) A number of commercially available H1- and H2-antagonists was infused for 10 min at a dose of 0.5 mg/kg/min in the rat CHI-model after inflicting severe head injury. Solvent (NaCl+H2T) was given at the same rate. In each group, 6 rats were treated.

[5] = target: T2, histamine H2-receptor (Cavia porcellus, UniProt P47747); test: Radioligand binding, histamine H2-receptor, guinea pig striatum cells, [125I]APT; settings: [125I]APT 0.1 nM, 150 min at 22° C., read-out: H2-antagonist activity (pIC50) (converted)
T2 construct: using guinea pig striatum cells and [^125I]APT as the radioligand; from tissue; host or cells: guinea pig striatum

[6] = tested on: non-traumatised rats; test: ICP and blood pressure in non-traumatized rats; assay type: in vivo, rat; settings: i.v. 0.5 mg/kg/min 10 minutes, then 0.1 mg/kg/min 50 min; anaesthetised
Description: For comparison, two commercially available H2-agonists (dimaprit and impromidine) were also tested by infusion into non-traumatized rats, using a dose of 0.5 mg/kg/min for 10 minutes for dimaprit and increasing doses up to 3.75 mg/kg/hour for impromidine.
Rats The effect of Compound 2, Compound 1 and Racemate (comp. 1 and comp. 2) on ICP, MABP and CPP was tested in anaesthetised non-traumatised rats. […] Conclusion

[7] = tested on: Sprague-Dawley rats with closed head injury; settings: for effect on the lowering of the blood pressure: rat, in vivo
Source text: as §1, §2, §3, §4, §5

[8] = tested on: traumaticaly induced brain edema; settings: prior treatment; cited from earlier work
[9] = i.v. 1 mg/kg/min during 10 min, repeated, start 20 min after severe head injury
[10] = i.v. 0.1 mg/kg.min 30 min, chloralhydrate 400 mg/kg i.p. anesthesia, n=6
[11] = i.v. 0.1 mg/kg.min 30 min, pentobarbital 60 mg/kg i.p. anesthesia, n=6
[12] = continuous infusion of 0.1 mg/kg.min

T1 sequence (P35367 whole entry): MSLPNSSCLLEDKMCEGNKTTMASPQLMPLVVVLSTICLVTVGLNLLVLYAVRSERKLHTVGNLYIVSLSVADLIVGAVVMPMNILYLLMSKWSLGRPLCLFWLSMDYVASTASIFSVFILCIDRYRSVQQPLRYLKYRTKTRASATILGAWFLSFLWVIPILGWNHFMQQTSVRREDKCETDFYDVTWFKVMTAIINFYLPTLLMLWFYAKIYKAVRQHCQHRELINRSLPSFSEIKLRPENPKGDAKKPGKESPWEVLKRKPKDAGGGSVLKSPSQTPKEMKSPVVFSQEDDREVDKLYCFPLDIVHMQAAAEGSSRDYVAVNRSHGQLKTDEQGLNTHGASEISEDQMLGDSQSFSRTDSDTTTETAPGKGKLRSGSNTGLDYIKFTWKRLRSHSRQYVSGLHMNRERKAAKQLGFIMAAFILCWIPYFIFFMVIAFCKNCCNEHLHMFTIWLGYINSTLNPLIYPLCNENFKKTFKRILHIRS
T2 sequence (P47747 whole entry): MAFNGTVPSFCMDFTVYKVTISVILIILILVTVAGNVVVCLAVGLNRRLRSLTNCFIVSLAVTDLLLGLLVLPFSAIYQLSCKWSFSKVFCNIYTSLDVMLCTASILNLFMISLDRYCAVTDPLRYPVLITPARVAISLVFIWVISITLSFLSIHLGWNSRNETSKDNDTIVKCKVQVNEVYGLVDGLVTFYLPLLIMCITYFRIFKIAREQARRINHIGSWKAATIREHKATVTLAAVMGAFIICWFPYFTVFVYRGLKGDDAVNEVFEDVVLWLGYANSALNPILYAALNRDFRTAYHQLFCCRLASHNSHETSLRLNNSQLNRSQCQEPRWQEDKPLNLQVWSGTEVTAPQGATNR

IC50 [3]: 200 nM | IC50 [5]: 1000 nM
Compound: Cc1nc2n(C)c3ccccc3n2c(=O)c1CCN1CCC(C2c3ccccc3CCn3c2nc2ccccc23)CC1Cc1ccccc1 (single isomer, unassigned) [Compound 1, pyrimido[1,2-a]benzimidazol-4(10H)-one, 3-[2-[4-(11 ,12-dihydro-6H-benzimidazo[2,1-b][3]benzazepin-6-yl)-2-(phenylmethyl)-1-piperidinyl]ethyl]-2,10-dimethyl (E)-2-butenedioate (2:3) hydrate (1:1)]
effect on saturation of brain haemoglobin with oxygen HbSat (NIRS) [1]: not affected | effect on the redox state of CytOx (NIRS) [1]: do not have an effect | effect on total brain haemoglobin concentration [HbTot] (NIRS) [1]: do not have a significant effect | ICP after termination of infusion [2]: significant ICP reduction | ICP during infusion [2]: no immediate decrease in ICP | blood pressure during infusion [2]: blood pressure drops | CPP (%), average change over treatment period, median (95% C.I.) [4]: −1.9 (−8.9; 0.4) % | ETCO2 (%), average change over treatment period, median (95% C.I.) [4]: 2.2 (−0.8; 8.4) % | Heart rate(%), average change over treatment period, median (95% C.I.) [4]: −4.1 (−11.4; 1.9) % | ICP (%), average change over treatment period, % change of initial value, median (95% C.I.) [4]: −15.4 (−22.6; −11.5)* % | MABP (%), average change over treatment period, median (95% C.I.) [4]: −3.6 (−11.9; −1.5) % | Resp. rate(%), average change over treatment period, median (95% C.I.) [4]: 5.3 (−3.3; 13.6) % | effect on ICP during 10 min infusion (dose response) ([4]; 0.125, 0.25, 0.5, 1 and 2 mg/kg/min for 10 min): sustained dose-dependent decrease of ICP | effect on ICP in the 10 min period following the infusion ([4]; 0.125-2 mg/kg/min for 10 min): highly significant dose-dependent effect on ICP remains present | dose yielding a statistically significant larger reduction in ICP than solvent ([4]; 10 min infusion): ≥ 1 mg/kg/min | effect of repeated infusion on ICP [4, 9]: rapid reduction of ICP | effect of repeated infusion on blood pressure [4, 9]: Blood pressure drops during Compound 1 treatment but is restored again after this episode | effect on ICP, MABP and CPP in non-traumatised rats [6]: comparable with those obtained in the traumatized animals

IC50 [3]: 794 nM
Compound: Cc1nc2n(C)c3ccccc3n2c(=O)c1CCN1CCC(C2c3ccccc3CCn3c2nc2ccccc23)CC1Cc1ccccc1 (single isomer, unassigned) [Compound 2, pyrimido[1,2-a]benzimidazol-4(10H)-one, 3-[2-[4-(11 ,12-dihydro-6H-benzimidazo[2,1-b][3]benzazepin-6-yl)-2-(phenylmethyl)-1-piperidinyl]ethyl]-2,10-dimethyl (E)-2-butenedioate (2:3) hydrate (1:1)]
ICP, % of initial value (median) [1, 10]: 75 % of initial value | MABP, % of initial value (median) [1, 10]: 110 % of initial value | ICP, % of initial value (median) [1, 11]: 64 % of initial value | MABP, % of initial value at the end of the infusion (median) [1, 11]: 141 % of initial value | effect on saturation of brain haemoglobin with oxygen HbSat (NIRS) [1]: small but statistically significant reduction | effect on the redox state of CytOx (NIRS) [1]: do not have an effect | effect on total brain haemoglobin concentration [HbTot] (NIRS) [1]: do not have a significant effect | CPP (%), average change over treatment period, median (95% C.I.) [4]: 24.2 (0.9; 43.6)* % | ETCO2 (%), average change over treatment period, median (95% C.I.) [4]: −4.4 (−8.9; 2.3)* % | Heart rate(%), average change over treatment period, median (95% C.I.) [4]: −9.6 (−21.8; 0.7) % | ICP (%), average change over treatment period, % change of initial value, median (95% C.I.) [4]: −15.3 (−20.0; −9.5)* % | MABP (%), average change over treatment period, median (95% C.I.) [4]: 18.8 (−2.0; 31.0)* % | Resp. rate(%), average change over treatment period, median (95% C.I.) [4]: 6.6 (−1.3; 14.6) % | increases in MABP observed [4, 12]: ≤ 20% | maximal reduction of ICP versus infusion preceded by loading dose [4, 12]: comparable | time required to obtain maximal reduction of ICP (median) [4, 12]: 30 min | median MABP increase at the end of the infusion ([4]; continuous infusion of 0.1 mg/kg.min, n=6): 9% | effect on ICP, MABP and CPP in non-traumatised rats [6]: comparable with those obtained in the traumatized animals

Compound: CN(C)CCC(c1ccc(Cl)cc1)c1ccccn1 (stereo not shown) [Chlorpheniramine, reference compound]
effect on the lowering of the blood pressure [7]: no or little effect | Effect on ICP ([4]; severe head injury): −

Compound: CN/C(=N/CCSCc1nc[nH]c1C)NC#N [Cimetidine, cimetidine]
increased brain water content and elevated plasma and brain histamine levels [8]: prevented

Compound: CN(C)CCOC(c1ccccc1)c1ccccc1 [Diphenhydramine, diphenhydramine, reference compound]
effect on the lowering of the blood pressure [7]: no or little effect | reduction in ICP ([4]; 1 mg/kg/min for 10 min, severe head injury, three rats): 34%

Compound: OCCOCCN1CCN(C(c2ccccc2)c2ccc(Cl)cc2)CC1 (stereo not shown) [Hydroxyzine]
Effect on ICP ([7]; iv, 0.5 mg/kg, 0.25 h): −

Compound: CC(CN1c2ccccc2Sc2ccccc21)N(C)C (stereo not shown) [Promethazine, reference compound]
effect on the lowering of the blood pressure [7]: no or little effect | Effect on ICP ([4]; severe head injury): −

Compound: COc1ccc(CN(CCN(C)C)c2ccccn2)cc1 [Pyrilamine]
increased brain water content and elevated plasma and brain histamine levels [8]: failed to reduce the increased brain water content | effect on the lowering of the blood pressure [7]: no or little effect

IC50 [5]: 3160 nM
Compound: CNC(=C[N+](=O)[O-])NCCSCc1ccc(CN(C)C)o1 [Ranitidine, ranitidine, reference compound]

Compound: c1cc(CN2CCCCC2)cc(OCCCNc2nc3ccccc3s2)c1 [Zolantidine, reference compound]
effect on the lowering of the blood pressure [7]: no or little effect | Effect on ICP ([4]; severe head injury): −
